Experimental data published in ChEMBL document CHEMBL1121398, “Synthetic modulators of the complement system. 1. Synthesis and biological activity of 5,5',5''-[1,3,6-naphthalenetriyltris(sulfonylimino)]-tris[1,3-benzenedisulfonic acid] hexasodium salt” (1980).
In brackets after ≈: the same amount, converted by molar mass.

Legend:
Cavia porcellus [1] = species on record: Cavia porcellus; assay: Evaluated in vitro for complement activity using guinea pig serum was determined by cap 50 assay; type: functional; conditions: for EC50: read-out: ED50 (the source's name)
Cavia porcellus [2] = assay: Evaluated in vivo after intraperitoneal administration by guinea pig assay; type: functional
Homo sapiens [3] = species on record: Homo sapiens; assay: The ability to inhibit late component of human complement (C3-C9) using C-late assay
Homo sapiens [4] = species on record: Homo sapiens; assay: Ability to destroy fluid-phase human complement 1 in the presence of complement 4 with appropriate serial twofold dilutions of the test compound using C1 assay
[5] = Inhibition of the complement alternative pathway by Mercaptan-treated human erythrocytes lyse in autologous serum via the alternative pathway activated by cobra venom factor in the presence of appropriate serial twofold dilutions of the test compound

SMILES | EC50 (Cavia porcellus [1]) [µg/mL] | Inhibition (Cavia porcellus [2]) [%] | ED50 (Homo sapiens [3]) [µg/mL] | ED50 (Homo sapiens [4]) [µg/mL] | ED50 [5] [µg/mL] | Activity (Cavia porcellus [1]) [µg/mL]
Cc1ccc(C(=O)Nc2ccc(S(=O)(=O)O)c3cc(S(=O)(=O)O)cc(S(=O)(=O)O)c23)cc1NC(=O)c1cccc(NC(=O)Nc2cccc(C(=O)Nc3cc(C(=O)Nc4ccc(S(=O)(=O)O)c5cc(S(=O)(=O)O)cc(S(=O)(=O)O)c45)ccc3C)c2)c1 [SURAMIN] | 603 (≈ 465 µM) | 44 | 50 (≈ 38.5 µM) | 21 | 167 | 
O=S(=O)([O-])c1cc(NS(=O)(=O)c2ccc3c(S(=O)(=O)Nc4cc(S(=O)(=O)[O-])cc(S(=O)(=O)[O-])c4)cc(S(=O)(=O)Nc4cc(S(=O)(=O)[O-])cc(S(=O)(=O)[O-])c4)cc3c2)cc(S(=O)(=O)[O-])c1.[Na+].[Na+].[Na+].[Na+].[Na+].[Na+] | 21 | 86 | 12 | 0.7 | 21 | 
Nc1ccc2cc(S(=O)(=O)[O-])cc(O)c2c1/N=N/c1ccc(NC(=O)Nc2ccc(/N=N/c3c(N)ccc4cc(S(=O)(=O)[O-])cc(O)c34)c(S(=O)(=O)[O-])c2)cc1S(=O)(=O)[O-].[Na+].[Na+].[Na+].[Na+] |  | >95 | 6 | 21 | 167 | 113
